Data: patent US4308380A, “2-Lower alkyl-2 or 3-cephem-4-carboxylic acid derivatives” (Fujisawa Pharmaceutical Co., Ltd., priority 1973, dated 1981)
≈ marks a conversion by molar mass, not a printed value. Structures can show the parent of a compound that is named as a salt. Where two headings read alike, the source gives them in different places.

What was measured:
Assay type in all cases: cell-based
[1] = tested on: Staphylococcus aureus 206; assay: in vitro antimicrobial activity, two-fold agar plate dilution method, S. aureus 206; details: Table 1, S. aureus 206, 37° C., 20 hours, read-out: minimum inhibitory concentration (MIC)
Description: (§1) The in vitro tests of antimicrobial activity of the compared compounds were determined by the two-fold agar plate dilution method described as follows: […]

[2] = tested on: Staphylococcus aureus 213; assay: in vitro antimicrobial activity, two-fold agar plate dilution method, S. aureus 213; details: Table 1, S. aureus 213, 37° C., 20 hours, read-out: minimum inhibitory concentration (MIC)
Description: as §1

[3] = tested on: Staphylococcus aureus 278; assay: in vitro antimicrobial activity, two-fold agar plate dilution method, S. aureus 278; details: Table 1, S. aureus 278, 37° C., 20 hours, read-out: minimum inhibitory concentration (MIC)
Description: as §1

[4] = tested on: Staphylococcus aureus 226; assay: in vitro antimicrobial activity, two-fold agar plate dilution method, S. aureus 226; details: Table 1, S. aureus 226, 37° C., 20 hours, read-out: minimum inhibitory concentration (MIC)
Description: as §1

[5] = tested on: Bacillus subtilis ATCC-6633; assay: in vitro antimicrobial activity, two-fold agar-plate dilution method, B. subtilis ATCC-6633; details: 20 hours
Description: (§2) In vitro antimicrobial activity was determined by the two-fold agar-plate dilution method as described below.
(§3) One loopful of an overnight culture of each test strain in Trypticase-soy broth (10^8 viable cells per ml) was streaked on heart infusion agar (HI-agar) containing graded concentration of antibiotics, and the minimum inhibitory concentration (MIC) was expressed in terms of meg/ml after incubation at 37° C. for 20 hours.
(§4) The data in Table 1 below present a comparison between the 2-(C1 -C6 alkyl)-cephem compounds of the present invention and known cephem compounds structurally analogous to the present compounds, differing only by alkyl substitution in the 3-position. The in vitro tests of antimicrobial activity of the compared compounds were determined by the two-fold agar plate dilution method described as follows:
as §3, with “(HI sugar)” for “(HI-agar)”, “mcg/ml” for “meg/ml”

[6] = tested on: Staphylococcus aureus 277; assay: in vitro antimicrobial activity, two-fold agar plate dilution method, S. aureus 277; details: Table 1, S. aureus 277, 37° C., 20 hours, read-out: minimum inhibitory concentration (MIC)
Description: as §1

[7] = tested on: Staphylococcus aureus 209 P JC-1; assay: in vitro antimicrobial activity, two-fold agar-plate dilution method, S. aureus 209 P JC-1; details: 20 hours
Description: as §2, §3, §4
as §3, with “(HI sugar)” for “(HI-agar)”, “mcg/ml” for “meg/ml”

[8] = ATCC6633, B. subtilis ATCC-6633, 37° C., HI-agar, read-out: MIC
[9] = ATCC6633, Table 1, B. subtilis ATCC-6633, 37° C., read-out: minimum inhibitory concentration (MIC)
[10] = 209PJC1, Table 1, S. aureus 209 P JC-1, 37° C., read-out: minimum inhibitory concentration (MIC)
[11] = S. aureus 209-P JC-1, 37° C., HI-agar, read-out: MIC

Row | SMILES | MIC [1] [µg/mL] | MIC [2] [µg/mL] | MIC [3] [µg/mL] | MIC [4] [µg/mL] | MIC [5, 8] [µg/mL] | MIC [5, 9] [µg/mL] | MIC [6] [µg/mL] | MIC [7, 10] [µg/mL] | MIC [7, 11] [µg/mL]
1 | CC1C=C(C(=O)O)N2C(=O)C(NC(=O)C(N=[N+]=[N-])c3ccccc3)[C@H]2S1 (stereo partly drawn) [Applicants' compound (10), 2-Methyl-7-(2-azido-2-phenylacetamido)-3-cephem-4-carboxylic acid] | 1.56 (≈ 4.18 µM) | 1.56 (≈ 4.18 µM) | 1.56 (≈ 4.18 µM) | 1.56 (≈ 4.18 µM) | 0.39 (≈ 1.04 µM) | 0.39 (≈ 1.04 µM) | 12.5 (≈ 33.5 µM) | 1.56 (≈ 4.18 µM) | 1.56 (≈ 4.18 µM)
2 | CC1C=C(C(=O)O)N2C(=O)C(NC(=O)CSc3nncs3)[C@H]2S1 (stereo partly drawn) [Applicants' compound (11), 2-Methyl-7-[2-(1,3,4-thiadiazol-2-ylthio)acetamido]-3-cephem-4-carboxylic acid] | 3.13 (≈ 8.4 µM) | 6.25 (≈ 16.8 µM) | 6.25 (≈ 16.8 µM) | 3.13 (≈ 8.4 µM) | 0.78 (≈ 2.09 µM) | 0.78 (≈ 2.09 µM) | 3.13 (≈ 8.4 µM) | 1.56 (≈ 4.19 µM) | 1.56 (≈ 4.19 µM)
3 | CC1C=C(C(=O)O)N2C(=O)C(NC(=O)Cc3cnsn3)[C@H]2S1 (stereo partly drawn) [Applicants' compound (12), 2-Methyl-7-[2-(1,2,5-thiadiazol-3-yl)acetamido]-3-cephem-4-carboxylic acid] | 3.13 (≈ 9.2 µM) | 6.25 (≈ 18.4 µM) | 6.25 (≈ 18.4 µM) | 3.13 (≈ 9.2 µM) | 1.56 (≈ 4.58 µM) | 1.56 (≈ 4.58 µM) | 6.25 (≈ 18.4 µM) | 3.13 (≈ 9.2 µM) | 3.13 (≈ 9.2 µM)
4 | CC1C=C(C(=O)O)N2C(=O)C(NC(=O)CC#N)[C@H]2S1 (stereo partly drawn) [Applicants' compound (13), 2-Methyl-7-(2-cyanoacetamido)-3-cephem-4-carboxylic acid] | 6.25 (≈ 22.2 µM) | 12.5 (≈ 44.4 µM) | 6.25 (≈ 22.2 µM) | 6.25 (≈ 22.2 µM) | 3.13 (≈ 11.1 µM) | 3.13 (≈ 11.1 µM) | 3.13 (≈ 11.1 µM) | 3.13 (≈ 11.1 µM) | 3.13 (≈ 11.1 µM)
5 | C=CCSCC(=O)NC1C(=O)N2C(C(=O)O)=CC(C)S[C@H]12 (stereo partly drawn) [Applicants' compound (14), 2-Methyl-7-[2-(allylthio)acetamido]-3-cephem-4-carboxylic acid] | 3.13 (≈ 9.53 µM) | 6.25 (≈ 19 µM) | 3.13 (≈ 9.53 µM) | 3.13 (≈ 9.53 µM) | 1.56 (≈ 4.75 µM) | 1.56 (≈ 4.75 µM) | 1.56 (≈ 4.75 µM) | 1.56 (≈ 4.75 µM) | 1.56 (≈ 4.75 µM)
6 | CC1C=C(C(=O)O)N2C(=O)C(NC(=O)Cc3cccnc3)[C@H]2S1 (stereo partly drawn) [Applicants' compound (15), 2-Methyl-7-[2-(3-pyridyl)acetamido]-3-cephem-4-carboxylic acid] | 6.25 (≈ 18.7 µM) | 6.25 (≈ 18.7 µM) | 6.25 (≈ 18.7 µM) | 6.25 (≈ 18.7 µM) | 0.78 (≈ 2.34 µM) | 0.78 (≈ 2.34 µM) | 25 (≈ 75 µM) | 3.13 (≈ 9.39 µM) | 3.13 (≈ 9.39 µM)
7 | CSc1ccc(C(N)C(=O)NC2C(=O)N3C(C(=O)O)=CC(C)S[C@H]23)cc1 (stereo partly drawn) [Applicants' compound (16), 2-Methyl-7-[2-amino-2-(4-methylthiophenyl)acetamido]-3-cephem-4-carboxylicacid] | 6.25 (≈ 15.9 µM) | 25 (≈ 63.5 µM) | 12.5 (≈ 31.8 µM) | 6.25 (≈ 15.9 µM) | 6.25 (≈ 15.9 µM) | 6.25 (≈ 15.9 µM) | 25 (≈ 63.5 µM) | 3.13 (≈ 7.95 µM) | 3.13 (≈ 7.95 µM)
8 | CC1C=C(C(=O)O)N2C(=O)C(NC(=O)Cc3csc(N)n3)[C@H]2S1 (stereo partly drawn) [Applicants' compound (17), 2-Methyl-7-[2-(2-aminothiazol-4-yl)acetamido]-3-cephem-4-carboxylic acid] | 3.13 (≈ 8.83 µM) | 1.56 (≈ 4.4 µM) | 1.56 (≈ 4.4 µM) | 1.56 (≈ 4.4 µM) |  | 3.13 (≈ 8.83 µM) | 1.56 (≈ 4.4 µM) | 1.56 (≈ 4.4 µM) | 
9 | CC1=C(C(=O)O)N2C(=O)C(NC(=O)C(O)c3cccs3)C2SC1 (stereo not drawn) [cited compound (2), 3-Methyl-7-[2-hydroxy-2-(2-thienyl)acetamido]-3-cephem-4-carboxylic acid (sodium salt), reference compound] | 6.25 | 25 | 12.5 | 12.5 |  | 1.56 | 12.5 | 6.25 | 
10 | CC1=C(C(=O)O)N2C(=O)C(NC(=O)C(OC(=O)c3ccncc3)c3ccccc3)C2SC1 (stereo not drawn) [cited compound (4), reference compound] | 12.5 (≈ 27.6 µM) | 12.5 (≈ 27.6 µM) | 12.5 (≈ 27.6 µM) | 12.5 (≈ 27.6 µM) |  | 0.78 (≈ 1.72 µM) | 12.5 (≈ 27.6 µM) | 1.56 (≈ 3.44 µM) | 
